Test results from PubChem BioAssay AID248 (DTP/NCI, 2004).
Several values for one entry are separate records, joined by “and”; a condition that tells them apart may be missing. Equal entries are not always repeated. Inconclusive results and toxic doses are left out. No stated cut-off is given here; in the data, active means T/C of 150% or more; inactive means T/C below 125%.

Test system: L1210 leukemia ip in BDF1 mice, survival T/C
Assay: NCI In Vivo Anticancer Drug Screen. Data for tumor model L1210 Leukemia (intraperitoneal) in B6D2F1 (BDF1) mice
Details: endpoint: mean survival time, higher = longer survival
Procedure, shortened: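 Each compound was tested against a transplantable tumor grown in mice. The endpoint was survival, with treated animals benchmarked against vehicle controls as a simple ratio.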

[1] = dose: 100.0 mg/kg/injection, schedule: Q04DX003 (ip), vehicle: saline
[2] = dose: 200.0 mg/kg/injection, schedule: Q04DX003 (ip), vehicle: saline
[3] = dose: 100.0 mg/kg/injection, schedule: Q01DX001 (ip), vehicle: saline
[4] = dose: 200.0 mg/kg/injection, schedule: Q01DX001 (ip), vehicle: saline
[5] = dose: 400.0 mg/kg/injection, schedule: Q01DX001 (ip), vehicle: saline
[6] = dose: 100.0 mg/kg/injection, schedule: Q01DX009 (ip), vehicle: saline with Tween-80
[7] = dose: 200.0 mg/kg/injection, schedule: Q01DX009 (ip), vehicle: saline with Tween-80
[8] = dose: 100.0 mg/kg/injection, schedule: Q04DX003 (ip), vehicle: Klucel (hydroxypropylcellulose) (HPC)

Measured: T/C

COC(=O)C1C2C3CC(C4CC43)C12 (stereo not given)
inactive: dose: 100.0 mg/kg/injection, schedule: Q01DX009 (ip), vehicle: saline 92 % of control | [1] 93 % of control | dose: 200.0 mg/kg/injection, schedule: Q01DX009 (ip), vehicle: saline 92 % of control | [2] 107 % of control | dose: 400.0 mg/kg/injection, schedule: Q01DX009 (ip), vehicle: saline 96 % of control | dose: 400.0 mg/kg/injection, schedule: Q04DX003 (ip), vehicle: saline 96 % of control

C#CCOCCBr
inactive: dose: 100.0 mg/kg/injection, schedule: Q04DX003 (ip), vehicle: saline with Tween-80 97 % of control | dose: 200.0 mg/kg/injection, schedule: Q04DX003 (ip), vehicle: saline with Tween-80 95 % of control

O/N=C1\CCc2ccccc21
inactive: dose: 50.0 mg/kg/injection, schedule: Q04DX002 (ip), vehicle: Klucel (hydroxypropylcellulose) (HPC) 100 % of control | dose: 100.0 mg/kg/injection, schedule: Q04DX002 (ip), vehicle: Klucel (hydroxypropylcellulose) (HPC) 92 % of control | dose: 200.0 mg/kg/injection, schedule: Q04DX002 (ip), vehicle: Klucel (hydroxypropylcellulose) (HPC) 96 % of control

O=C(Nc1ccccc1F)OCC1CC2C=CC1C2 (stereo not given)
inactive: dose: 100.0 mg/kg/injection, schedule: Q01DX009 (ip), vehicle: Klucel (hydroxypropylcellulose) (HPC) 101 % of control | dose: 200.0 mg/kg/injection, schedule: Q01DX009 (ip), vehicle: Klucel (hydroxypropylcellulose) (HPC) 104 % of control | dose: 400.0 mg/kg/injection, schedule: Q01DX009 (ip), vehicle: Klucel (hydroxypropylcellulose) (HPC) 93 % of control

O=CC(O)C(O)C(Cl)C(O)CCl (stereo not given)
inactive: dose: 100.0 mg/kg/injection, schedule: Q04DX002 (ip), vehicle: saline with Tween-80 90 % of control | dose: 200.0 mg/kg/injection, schedule: Q04DX002 (ip), vehicle: saline with Tween-80 97 % of control | dose: 400.0 mg/kg/injection, schedule: Q04DX002 (ip), vehicle: saline with Tween-80 93 % of control

CCCCC#CC(O)(C(=O)OC)c1ccccc1 (stereo not given)
inactive: dose: 100.0 mg/kg/injection, schedule: Q01DX001 (ip), vehicle: other 107 % of control | dose: 200.0 mg/kg/injection, schedule: Q01DX001 (ip), vehicle: other 110 % of control | dose: 400.0 mg/kg/injection, schedule: Q01DX001 (ip), vehicle: other 94 % of control

CC[N+](C)(CC)CCCOC(=O)c1ccccc1Oc1ccc(C)cc1
inactive: [1] 104 % of control | [2] 93 % of control

O=C(CCCC(=O)NNC(=S)Nc1ccccc1Cl)NNC(=S)Nc1ccccc1Cl
inactive: dose: 50.0 mg/kg/injection, schedule: Q01DX001 (ip), vehicle: saline 96 % of control | [3] 96 % of control | [4] 93 % of control | [5] 93 % of control

COC1=C(C)CCC1=O
inactive: dose: 37.5 mg/kg/injection, schedule: Q04DX002 (ip), vehicle: saline 106 % of control | dose: 75.0 mg/kg/injection, schedule: Q04DX002 (ip), vehicle: saline 95 % of control | dose: 150.0 mg/kg/injection, schedule: Q04DX002 (ip), vehicle: saline 98 % of control | dose: 300.0 mg/kg/injection, schedule: Q04DX002 (ip), vehicle: saline 88 % of control

CC(=O)OC1CCC2(C)C3CCC4(C)C(C(C)/C=C/C(C)C(C)C)CCC4C34C=CC2(C1)C1C(=O)OC(=O)C14 (stereo not given)
inactive: dose: 100.0 mg/kg/injection, schedule: Q04DX002 (ip), vehicle: saline 93 % of control | dose: 200.0 mg/kg/injection, schedule: Q04DX002 (ip), vehicle: saline 96 % of control | dose: 400.0 mg/kg/injection, schedule: Q04DX002 (ip), vehicle: saline 89 % of control

CC(C)(C)C(Br)CBr (stereo not given)
inactive: dose: 50.0 mg/kg/injection, schedule: Q01DX009 (ip), vehicle: saline with Tween-80 101 % of control | [6] 101 % of control | [7] 97 % of control

Cc1ccc2ccc3ccc4ccccc4c3c2c1
inactive: dose: 50.0 mg/kg/injection, schedule: Q01DX001 (ip), vehicle: Klucel (hydroxypropylcellulose) (HPC) 101 % of control | dose: 100.0 mg/kg/injection, schedule: Q01DX001 (ip), vehicle: Klucel (hydroxypropylcellulose) (HPC) 95 % of control | dose: 200.0 mg/kg/injection, schedule: Q01DX001 (ip), vehicle: Klucel (hydroxypropylcellulose) (HPC) 101 % of control

CCOc1nc(N)c(C(N)=O)cc1C#N
inactive: dose: 100.0 mg/kg/injection, schedule: Q04DX003 (ip), vehicle: saline sonified 98 % of control | dose: 200.0 mg/kg/injection, schedule: Q04DX003 (ip), vehicle: saline sonified 105 % of control

CSc1ncnc2c1ncn2C1OC(CO)C(O)OC1O (stereo not given)
inactive: dose: 15.0 mg/kg/injection, schedule: Q01DX009 (ip), vehicle: saline 117 % of control | dose: 25.0 mg/kg/injection, schedule: Q01DX009 (ip), vehicle: saline 111 % of control | dose: 25.0 mg/kg/injection, schedule: Q04DX003 (ip), vehicle: Klucel (hydroxypropylcellulose) (HPC) 104 % of control | dose: 45.0 mg/kg/injection, schedule: Q01DX001 (ip), vehicle: saline 106 % of control | dose: 45.0 mg/kg/injection, schedule: Q01DX009 (ip), vehicle: saline 119 % of control | dose: 50.0 mg/kg/injection, schedule: Q04DX003 (ip), vehicle: Klucel (hydroxypropylcellulose) (HPC) 109 % of control | dose: 67.0 mg/kg/injection, schedule: Q01DX001 (ip), vehicle: saline 118 % of control | dose: 70.0 mg/kg/injection, schedule: Q01DX009 (ip), vehicle: saline 119 % of control | dose: 75.0 mg/kg/injection, schedule: Q01DX009 (ip), vehicle: saline 116 % of control | [8] 110 % of control | [4] 112 % of control

COC(=O)C(CCSC)NC(=O)C(C)NC(=O)c1cnc2ccccc2n1 (stereo not given)
inactive: dose: 100.0 mg/kg/injection, schedule: Q01DX001 (ip), vehicle: carboxymethylcellulose (CMC) 91 % of control | dose: 200.0 mg/kg/injection, schedule: Q01DX001 (ip), vehicle: carboxymethylcellulose (CMC) 94 % of control | dose: 400.0 mg/kg/injection, schedule: Q01DX001 (ip), vehicle: carboxymethylcellulose (CMC) 98 % of control

O=S(=O)(F)c1ccc(C[P+](c2ccccc2)(c2ccccc2)c2ccccc2)cc1Cl
inactive: dose: 12.5 mg/kg/injection, schedule: Q01DX001 (ip), vehicle: carboxymethylcellulose (CMC) 103 % of control | dose: 12.5 mg/kg/injection, schedule: Q01DX009 (ip), vehicle: carboxymethylcellulose (CMC) 113 % of control and 117 % of control | dose: 12.5 mg/kg/injection, schedule: Q04DX002 (ip), vehicle: carboxymethylcellulose (CMC) 97 % of control and 100 % of control | dose: 25.0 mg/kg/injection, schedule: Q01DX001 (ip), vehicle: carboxymethylcellulose (CMC) 99 % of control | dose: 25.0 mg/kg/injection, schedule: Q01DX009 (ip), vehicle: carboxymethylcellulose (CMC) 97 % of control and 98 % of control | dose: 25.0 mg/kg/injection, schedule: Q04DX002 (ip), vehicle: carboxymethylcellulose (CMC) 100 % of control and 103 % of control | dose: 25.0 mg/kg/injection, schedule: Q04DX003 (ip), vehicle: carboxymethylcellulose (CMC) 96 % of control and 102 % of control | dose: 50.0 mg/kg/injection, schedule: Q01DX001 (ip), vehicle: carboxymethylcellulose (CMC) 99 % of control and 101 % of control and 107 % of control | dose: 50.0 mg/kg/injection, schedule: Q01DX009 (ip), vehicle: carboxymethylcellulose (CMC) 98 % of control and 103 % of control | dose: 50.0 mg/kg/injection, schedule: Q04DX002 (ip), vehicle: carboxymethylcellulose (CMC) 100 % of control and 110 % of control | dose: 50.0 mg/kg/injection, schedule: Q04DX003 (ip), vehicle: carboxymethylcellulose (CMC) 102 % of control and 105 % of control | dose: 100.0 mg/kg/injection, schedule: Q04DX002 (ip), vehicle: carboxymethylcellulose (CMC) 101 % of control and 91 % of control | dose: 100.0 mg/kg/injection, schedule: Q04DX003 (ip), vehicle: carboxymethylcellulose (CMC) 102 % of control and 104 % of control

Cc1ccc(N2SC(Cl)(Cl)N(c3ccc(C)cc3)SC2(Cl)Cl)cc1
inactive: [8] 94 % of control | dose: 200.0 mg/kg/injection, schedule: Q04DX003 (ip), vehicle: Klucel (hydroxypropylcellulose) (HPC) 90 % of control | dose: 400.0 mg/kg/injection, schedule: Q04DX003 (ip), vehicle: Klucel (hydroxypropylcellulose) (HPC) 100 % of control

Cc1cc(C)c2ccc(=O)[nH]c2n1
inactive: [3] 92 % of control | [4] 101 % of control | [5] 101 % of control

Nc1ccc(-c2cc3ccccc3oc2=O)cc1
inactive: dose: 6.25 mg/kg/injection, schedule: Q04DX002 (ip), vehicle: Klucel (hydroxypropylcellulose) (HPC) 100 % of control and 119 % of control | dose: 12.5 mg/kg/injection, schedule: Q04DX002 (ip), vehicle: Klucel (hydroxypropylcellulose) (HPC) 92 % of control and 111 % of control | dose: 25.0 mg/kg/injection, schedule: Q04DX002 (ip), vehicle: Klucel (hydroxypropylcellulose) (HPC) 92 % of control and 102 % of control

COC(=O)c1noc2cc([N+](=O)[O-])ccc12
inactive: [6] 96 % of control | [7] 92 % of control | dose: 400.0 mg/kg/injection, schedule: Q01DX009 (ip), vehicle: saline with Tween-80 90 % of control
